From patent publication US7420001B2 (Wyeth, priority 2003, dated 2008)
Where two headings read alike, the source gives them in different places.

Columns and labels:
MMP-13 = molecular target: T1, MMP-13 (Homo sapiens, UniProt P45452); assay: In-vitro fluorescence assay of MMP-13 activity; type: biochemical
T1 construct: made in house

MMP-2 = molecular target: T2, MMP-2 (Homo sapiens, UniProt P08253); assay: In-vitro fluorescence assay of MMP-2 activity; type: biochemical; details: recombinant human MMP-2; read-out: MMP-2 IC50
T2 construct: purchased Oncogene Research Products (Calbiochem) PF023
T2 sequence (P08253 110-660): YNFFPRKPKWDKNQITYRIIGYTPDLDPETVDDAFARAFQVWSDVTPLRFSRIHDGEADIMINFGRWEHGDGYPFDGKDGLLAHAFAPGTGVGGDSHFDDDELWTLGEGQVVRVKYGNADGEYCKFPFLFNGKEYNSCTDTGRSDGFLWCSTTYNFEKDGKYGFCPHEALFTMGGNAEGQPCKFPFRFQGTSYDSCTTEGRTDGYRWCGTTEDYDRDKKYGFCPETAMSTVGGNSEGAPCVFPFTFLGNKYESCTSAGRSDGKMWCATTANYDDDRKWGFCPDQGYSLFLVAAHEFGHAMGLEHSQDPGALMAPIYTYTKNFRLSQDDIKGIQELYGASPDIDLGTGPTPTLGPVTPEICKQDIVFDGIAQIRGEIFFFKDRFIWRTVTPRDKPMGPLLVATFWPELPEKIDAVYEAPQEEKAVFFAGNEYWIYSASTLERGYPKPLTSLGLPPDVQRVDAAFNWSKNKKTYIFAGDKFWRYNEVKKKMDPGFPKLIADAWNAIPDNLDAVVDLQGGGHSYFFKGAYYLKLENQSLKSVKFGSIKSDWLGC

[1] = recombinant human catalytic domain of MMP-13, read-out: MMP-13 IC50

| SMILES | IC50 (MMP-13; MMP-13 IC50, recombinant human catalytic domain of MMP-13) [nM] | IC50 (MMP-13; [1]) [nM] | IC50 (MMP-2) [nM] |
| --- | --- | --- | --- |
| COc1c(Br)ccc2oc(C(=O)Nc3ccc(-c4ccc(S(=O)(=O)NC(C(=O)O)C(C)C)cc4)cc3)c(C)c12 (stereo in doubt) [Example 119, (R)-2-{4′-[(5-Bromo-4-methoxy-3-methyl-benzofuran-2-carbonyl)-amino]-biphenyl-4-sulfonylamino}-3-methyl-butyric acid] |  | 3.4 | 688 |
| CC(C)[C@H](NS(=O)(=O)c1ccc(-c2ccc(NC(=O)c3cc4cc([N+](=O)[O-])ccc4o3)cc2)cc1)C(=O)O [Example 6, N-[(4′-{[(5-nitro-1-benzofuran-2-yl)carbonyl]amino}-1,1′-biphenyl-4-yl)sulfonyl]-L-valine] |  | 0.7 | 3.3 |
| CC(C)[C@H](NS(=O)(=O)c1ccc(-c2ccc(NC(=O)c3cc4cc(NS(=O)(=O)c5ccccc5)ccc4o3)cc2)cc1)C(=O)O [Example 10, 4′-[(5-Benzenesulfonylamino-benzofuran-2-carbonyl)-amino]-biphenyl-4-sulfonyl-L-valine] |  | 3.4 | 19 |
| COc1cccc2oc(C(=O)Nc3ccc(-c4ccc(S(=O)(=O)N[C@H](C(=O)O)C(C)C)cc4)cc3)cc12 [Example 11, N-[(4′-{[(4-methoxy-1-benzofuran-2-yl)carbonyl]amino}-1,1′-biphenyl-4-yl)sulfonyl]-L-valine] |  | 2.3 | 16 |
| CC(C)[C@H](NS(=O)(=O)c1ccc(-c2ccc(NC(=O)c3cc4c(OCc5ccccc5)cccc4o3)cc2)cc1)C(=O)O [Example 13, 4′-[(4-Benzyloxy-benzofuran-2-carbonyl)-amino]-biphenyl-4-sulfonyl-L-valine] |  |  | 62 |
| CC(Oc1cccc2oc(C(=O)Nc3ccc(-c4ccc(S(=O)(=O)N[C@H](C(=O)O)C(C)C)cc4)cc3)cc12)C(=O)O (stereo partly drawn) [Example 14, 4′-{[4-(1-Carboxy-ethoxy)-benzofuran-2-carbonyl]-amino}-biphenyl-4-sulfonyl-L-valine] |  | 11 | 916 |
| NC(=O)C[C@H](NS(=O)(=O)c1ccc(-c2ccc(NC(=O)c3cc4ccccc4o3)cc2)cc1)C(=O)O [Example 15, N2-({4′-[(1-Benzofuran-2-ylcarbonyl)animo]-1,1′-biphenyl-4-yl}sulfonyl)-L-Asparagine] |  | 2.5 | 10 |
| O=C(Nc1ccc(-c2ccc(S(=O)(=O)N[C@@H](Cc3cnc[nH]3)C(=O)O)cc2)cc1)c1cc2ccccc2o1 [Example 17, N-({4′-[(1-Benzofuran-2-ylcarbonyl)amino]-1,1′-biphenyl-4-yl}sulfonyl)-L-Histidine] |  |  | 37 |
| CC(C)C[C@H](NS(=O)(=O)c1ccc(-c2ccc(NC(=O)c3cc4ccccc4o3)cc2)cc1)C(=O)O [Example 18, N-({4′-[(1-Benzofuran-2-ylcarbonyl)amino]-1,1′-biphenyl-4-yl}sulfonyl)-L-leucine] |  | 2.2 | 8.4 |
| Cc1c(C(=O)Nc2ccc(-c3ccc(S(=O)(=O)N[C@H](C(=O)O)C(C)C)cc3)cc2)oc2cccc(C#CC3CC3)c12 [Example 23, 2-{4′-[(4-Cyclopropylethynyl-3-methyl-benzofuran-2-carbonyl)-amino]-biphenyl-4-sulfonylamino}-3-methyl-butyric acid] |  | 21 | 3000 |
| COc1cc(OC)c2c(C)c(C(=O)Nc3ccc(-c4ccc(S(=O)(=O)N[C@H](C(=O)O)C(C)C)cc4)cc3)oc2c1C [Example 44, L-2-{4′-[(4,6-Dimethoxy-3,7-dimethyl-benzofuran-2-carbonyl)-amino]-biphenyl-4-sulfonylamino}-3-methyl-butyric acid] |  | 286 |  |
| CC(C)[C@H](NS(=O)(=O)c1ccc(-c2ccc(NC(=O)c3oc4ccccc4c3-c3ccccc3)cc2)cc1)C(=O)O [Example 54, L-3-Methyl-2-{4′-[(3-phenyl-benzofuran-2-carbonyl)-amino]-biphenyl-4-sulfonylamino}-butyric acid] |  | 220 |  |
| Cc1nc(-c2ccc(C(F)(F)F)cc2)sc1C(=O)Nc1ccc(-c2ccc(S(=O)(=O)N[C@H](C(=O)O)C(C)C)cc2)cc1 [Example 66, (S)-3-Methyl-2-(4′-{[4-methyl-2-(4-trifluoromethyl-phenyl)-thiazole-5-carbonyl]-amino}-biphenyl-4-sulfonylamino)-butyric acid] |  | 121 |  |
| CC(C)[C@H](NS(=O)(=O)c1ccc(-c2ccc(NC(=O)c3cc4ccccc4o3)cn2)cc1)C(=O)O [Example 76, 4-{5-[(Benzofuran-2-carbonyl)-amino]-pyridin-2-yl}-benzenesulfonyl-L-valine] |  | 3.1 |  |
| CC(C)[C@@H](C(=O)O)N(Cc1cccnc1)S(=O)(=O)c1ccc(-c2ccc(NC(=O)c3cc4ccccc4o3)cc2)cc1 [Example 81, N-({4′-[(1-Benzofuran-2-ylcarbonyl)amino]-1,1′-biphenyl-4-yl}sulfonyl)-N-(pyridin-3-ylmethyl)-L-valine] |  | 323 |  |
| C=C(Cl)c1ccc2oc(C(=O)Nc3ccc(-c4ccc(S(=O)(=O)N[C@H](C(=O)O)C(C)C)cc4)cc3)c(C)c2c1OC [Example 122, (S)-2-(4′-{[5-(1-Chloro-vinyl)-4-methoxy-3-methyl-benzofuran-2-carbonyl]-amino}-biphenyl-4-sulfonylamino)-3-methyl-butyric acid] |  | 222 |  |
| COCCCc1cccc2oc(COc3ccc(-c4ccc(S(=O)(=O)N[C@H](C(=O)O)C(C)C)cc4)cc3)c(C)c12 [Example 147, N-[(4′-{[4-(3-methoxypropyl)-3-methyl-1-benzofuran-2-yl]methoxy}-1,1′-biphenyl-4-yl)sulfonyl]-L-valine] |  | 1.9 |  |
| CC(C)[C@H](NS(=O)(=O)c1ccc(-c2ccc(NC(=O)c3csnn3)cc2)cc1)C(=O)O [Example 163, N-({4′-[(1,2,3-thiadiazol-4-ylcarbonyl)amino]-1,1′-biphenyl-4-yl}sulfonyl)-L-valine] |  |  | 2 |

The next lines start with results.

| IC50 (MMP-13; MMP-13 IC50, recombinant human catalytic domain of MMP-13) [nM] | IC50 (MMP-13; [1]) [nM] | SMILES | IC50 (MMP-2) [nM] |
| --- | --- | --- | --- |
| 0.4 |  | CC(C)C(NS(=O)(=O)c1ccc(-c2ccc(NC(=O)c3cc4cc(NS(C)(=O)=O)ccc4o3)cc2)cc1)C(=O)O (stereo in doubt) [Example 8, N-({4′-[({5-[(methylsulfonyl)amino]-1-benzofuran-2-yl}carbonyl)amino]-1,1′-biphenyl-4-yl}sulfonyl)-L-valine] | 3.9 |
|  | 1.3 | CC(=O)Nc1ccc2oc(C(=O)Nc3ccc(-c4ccc(S(=O)(=O)NC(C(=O)O)C(C)C)cc4)cc3)cc2c1 (stereo in doubt) [Example 9, N-{[4′-({[5-(acetylamino)-1-benzofuran-2-yl]carbonyl}amino)-1,1′-biphenyl-4-yl]sulfonyl}-L-valine] | 4 |
|  | 0.3 | CC(C)[C@H](NS(=O)(=O)c1ccc(-c2ccc(NC(=O)c3cc4cc(Cl)ccc4o3)cc2)cc1)C(=O)O [Example 4] | 4.1 |
|  | 10.4 | COc1cccc2cc(C(=O)Nc3ccc(-c4ccc(S(=O)(=O)N[C@H](C(=O)O)C(C)C)cc4)cc3)oc12 [Example 5, N-[(4′-{[(7-methoxy-1-benzofuran-2-yl)carbonyl]amino}-1,1′-biphenyl-4-yl)sulfonyl]-L-valine] |  |
|  | 1.5 | CC(C)[C@H](NS(=O)(=O)c1ccc(-c2ccc(NC(=O)c3cc4cc(N)ccc4o3)cc2)cc1)C(=O)O [Example 7, N-[(4′-{[(5-amino-1-benzofuran-2-yl)carbonyl]amino}-1,1′-biphenyl-4-yl)sulfonyl]-L-valine] |  |
|  | 6.2 | CC(C)[C@H](NS(=O)(=O)c1ccc(-c2ccc(NC(=O)c3cc4ccccc4s3)cc2)cc1)C(=O)O [Example 12, 4′-[(Benzo[β]thiophene-2-carbonyl)-amino]-biphenyl-4-sulfonyl-L-valine] | 149 |
|  | 9.9 | Cc1cc(-c2cccc3oc(C(=O)Nc4ccc(-c5ccc(S(=O)(=O)N[C@H](C(=O)O)C(C)C)cc5)cc4)c(C)c23)on1 [Example 35, L-3-Methyl-2-(4′-{[3-methyl-4-(3-methyl-isoxazol-5-yl)-benzofuran-2-carbonyl]-amino}-biphenyl-4-sulfonylamino)-butyric acid] |  |
|  | 5600 | CC(C)[C@@H](C(=O)O)N(C)S(=O)(=O)c1ccc(-c2ccc(NC(=O)c3cc4ccccc4o3)cc2)cc1 [Example 78, N-({4′-[(1-Benzofuran-2-ylcarbonyl)amino]-1,1′-biphenyl-4-yl}sulfonyl)-N-methyl-L-valine] |  |
|  | 294 | CC(C)[C@H](NS(=O)(=O)c1ccc(-c2ccc(NC(=O)c3oc4cccc5c4c3CN(C)CC5)cc2)cc1)C(=O)O [Example 85, N-[(4′-{[(4-Methyl-3,4,5,6-tetrahydrofuro[4,3,2-ef][3]benzazepin-2-yl)carbonyl]amino}-1,1′-biphenyl-4-yl)sulfonyl]-L-valine] |  |
|  | 1020 | COc1c(C(C)=O)ccc2oc(C(=O)Nc3ccc(-c4ccc(S(=O)(=O)N[C@H](C(=O)O)C(C)C)cc4)cc3)c(C)c12 [Example 121, (S)-2-{4′-[(5-Acetyl-4-methoxy-3-methyl-benzofuran-2-carbonyl)-amino]-biphenyl-4-sulfonylamino}-3-methyl-butyric acid] |  |
|  | 2870 | CC(C)[C@H](NS(=O)(=O)c1ccc(-c2ccc(NS(=O)(=O)c3cccs3)cc2)cc1)C(=O)O [Example 170, (S)-3-Methyl-2-[4′-(thiophene-2-sulfonylamino)-biphenyl-4-sulfonylamino]-butyric acid] |  |
